Reference: ChEMBL document CHEMBL1201862, “PubChem BioAssay data set” (2004)
Active and inactive are the calls of the source.

Experiments:
[1] = A Cell Based Secondary Assay To Explore Cytotoxicity of Compounds that Sensitize Mycobacterium Tuberculosis to Beta-Lactam Antibiotics.; type: functional
[2] = (§1) Counterscreen for antagonists of the orexin 1 receptor (OX1R; HCRTR1): Fluorescence-based cell-based high throughput dose response assay to identify antagonists of the parental CHO cell line. [Related pubchem assays (depositor defined):AID434989, AID435008, AID463079, AID485270, AID492963, AID492964, AID492965, AID493232, AID504699, AID504701]; type: functional
[3] = molecular target: T1, Orexin receptor type 2 (Homo sapiens, UniProt O43614); assay: Counterscreen assay for antagonists of the orexin 1 receptor (OX1R; HCRTR1): Homogeneous Time Resolved Fluorescence (HTRF)-based cell-based dose response assay for antagonists of the orexin 2 receptor (OX2R; HCRTR2), run by assay provider.; type: functional
T1 sequence (O43614 whole entry): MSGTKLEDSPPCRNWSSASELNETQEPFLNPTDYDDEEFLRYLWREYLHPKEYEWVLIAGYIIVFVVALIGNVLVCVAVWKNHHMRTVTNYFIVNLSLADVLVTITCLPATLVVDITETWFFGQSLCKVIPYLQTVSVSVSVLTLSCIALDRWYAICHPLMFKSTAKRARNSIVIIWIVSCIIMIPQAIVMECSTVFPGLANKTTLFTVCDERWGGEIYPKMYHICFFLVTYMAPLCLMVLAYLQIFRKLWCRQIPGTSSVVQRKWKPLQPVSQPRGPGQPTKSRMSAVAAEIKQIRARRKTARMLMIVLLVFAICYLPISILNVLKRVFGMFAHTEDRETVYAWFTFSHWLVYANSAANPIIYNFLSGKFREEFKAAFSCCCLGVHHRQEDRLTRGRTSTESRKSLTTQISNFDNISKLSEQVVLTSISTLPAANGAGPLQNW

[4] = test system: CHO-K1; assay: as §1, with “Homogeneous time resolved fluorescence (HTRF)-based” for “Fluorescence-based”, “cell-based” for “cell-based high throughput”, “CHO-K1” for “CHO”; type: functional; conditions: Cricetulus griseus;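 further: potency for inhibition of ATP-stimulated IP1 production as antagonists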
[5] = molecular target: T1, Orexin receptor type 2; assay: Counterscreen assay for antagonists of the orexin 1 receptor (OX1R; HCRTR1): Fluorescence-based cell-based dose response assay for antagonists of the orexin 2 receptor (OX2R; HCRTR2), run by assay provider.; type: functional
[6] = molecular target: T2, Orexin/Hypocretin receptor type 1 (Homo sapiens, UniProt O43613); assay: (§2) Fluorescence-based cell-based high throughput dose response assay for antagonists of the orexin 1 receptor (OX1R; HCRTR1). [Related pubchem assays (depositor defined):AID434989, AID435008, AID463079, AID485270, AID492963, AID492964, AID492965, AID493232, AID504717, AID504718]; type: functional
T2 sequence (O43613 whole entry): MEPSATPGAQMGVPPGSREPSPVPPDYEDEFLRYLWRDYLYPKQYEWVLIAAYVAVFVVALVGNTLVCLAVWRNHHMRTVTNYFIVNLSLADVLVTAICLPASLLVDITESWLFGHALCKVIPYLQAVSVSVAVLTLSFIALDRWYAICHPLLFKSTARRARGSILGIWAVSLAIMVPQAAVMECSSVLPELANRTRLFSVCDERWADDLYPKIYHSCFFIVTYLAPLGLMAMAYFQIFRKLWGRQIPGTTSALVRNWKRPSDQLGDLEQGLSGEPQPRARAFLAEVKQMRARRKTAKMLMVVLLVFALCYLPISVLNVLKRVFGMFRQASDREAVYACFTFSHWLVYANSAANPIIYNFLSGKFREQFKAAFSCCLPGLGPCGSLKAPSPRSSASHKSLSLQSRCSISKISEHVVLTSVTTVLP

[7] = molecular target: T2, Orexin/Hypocretin receptor type 1; assay: as §2, with “Homogeneous Time Resolved Fluorescence (HTRF)-based” for “Fluorescence-based”; type: functional
[8] = cytotoxicity toward NIH3T3 fibroblasts, dose response, counter-screen, cell-based, ATP luminescence, mouse fibroblasts (AID 2010); type: functional;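 further: cells exposed to compound for about 90 hours before reading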
[9] = inhibitors of firefly luciferase expression or activity, dose response, H4 neuroglioma cells, luminescence (AID 1990); type: functional, cell-based
[10] = Luminescence Cell-Based Dose Response HTS to Identify Inhibitors of 5'UTR Stem-Loop Driven Prion Protein mRNA Translation in H4 Neuroglioblastoma Cells. [Related pubchem assays: 1827 (Project Summary), 1813 (Primary HTS)]; type: functional
[11] = inhibitors of SNCA 5'UTR-driven reporter translation, confirmation, H4 neuroglioma cells, luminescence (AID 1988); type: functional, cell-based
[12] = inhibitors of intracellular T. cruzi replication, confirmation, NIH3T3 host cells, beta-gal luminescence (AID 2044); type: functional, cell-based;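 further: intracellular parasites grown in NIH/3T3 mouse fibroblasts as host cells; luminescent beta-galactosidase reporter signal from transgenic T. cruzi replicating inside host cells; inhibitors lower the luminescence signal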
[13] = molecular target: T3, Alkaline phosphatase, tissue-nonspecific isozyme (Homo sapiens, UniProt P05186)
T3 sequence (P05186 whole entry): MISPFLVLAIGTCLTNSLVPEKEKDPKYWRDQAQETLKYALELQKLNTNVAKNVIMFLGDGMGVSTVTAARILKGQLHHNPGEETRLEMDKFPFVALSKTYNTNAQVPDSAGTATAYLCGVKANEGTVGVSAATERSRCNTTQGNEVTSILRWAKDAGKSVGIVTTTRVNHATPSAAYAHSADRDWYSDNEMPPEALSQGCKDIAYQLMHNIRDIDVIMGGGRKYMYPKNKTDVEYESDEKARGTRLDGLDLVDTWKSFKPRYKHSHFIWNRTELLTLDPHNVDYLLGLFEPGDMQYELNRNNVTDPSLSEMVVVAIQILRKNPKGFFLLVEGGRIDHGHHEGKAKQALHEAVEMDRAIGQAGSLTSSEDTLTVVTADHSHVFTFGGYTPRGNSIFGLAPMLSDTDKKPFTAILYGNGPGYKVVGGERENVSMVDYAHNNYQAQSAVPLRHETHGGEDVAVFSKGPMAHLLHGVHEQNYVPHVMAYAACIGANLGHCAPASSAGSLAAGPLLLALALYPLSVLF

[14] = molecular target: T4, Cytochrome P450 1A2 (Homo sapiens, UniProt P05177);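 further: PubChem cytochrome P450 panel assay, CYP1A2 panel member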
T4 sequence (P05177 whole entry): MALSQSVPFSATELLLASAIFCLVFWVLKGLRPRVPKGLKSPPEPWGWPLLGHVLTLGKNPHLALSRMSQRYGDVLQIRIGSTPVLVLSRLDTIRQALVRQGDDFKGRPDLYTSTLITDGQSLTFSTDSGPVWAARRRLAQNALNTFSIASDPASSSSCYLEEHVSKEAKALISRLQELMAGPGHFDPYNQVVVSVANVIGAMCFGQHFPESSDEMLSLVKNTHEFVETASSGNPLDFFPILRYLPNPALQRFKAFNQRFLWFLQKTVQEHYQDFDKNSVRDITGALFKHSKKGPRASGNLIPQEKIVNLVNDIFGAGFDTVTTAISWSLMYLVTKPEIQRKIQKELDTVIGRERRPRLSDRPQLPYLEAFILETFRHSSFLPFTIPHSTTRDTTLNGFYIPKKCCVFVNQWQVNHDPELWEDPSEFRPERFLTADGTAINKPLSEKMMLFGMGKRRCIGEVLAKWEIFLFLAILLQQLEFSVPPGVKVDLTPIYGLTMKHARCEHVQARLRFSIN

[15] = molecular target: Cytochrome P450 2C19 (Homo sapiens, UniProt P33261); assay: Cytochrome panel assay with activity outcomes. Panel member name: p450-cyp2c19 Compounds with AC50 equal or less than 10 uM are considered active; type: functional; conditions: read-out: AC50
[16] = molecular target: Cytochrome P450 2D6 (Homo sapiens, UniProt P10635);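 further: CYP2D6 member of a cytochrome P450 panel assay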
[17] = molecular target: Cytochrome P450 2C9 (Homo sapiens, UniProt P11712)
Cytochrome P450 2C9, sequence (P11712 whole entry): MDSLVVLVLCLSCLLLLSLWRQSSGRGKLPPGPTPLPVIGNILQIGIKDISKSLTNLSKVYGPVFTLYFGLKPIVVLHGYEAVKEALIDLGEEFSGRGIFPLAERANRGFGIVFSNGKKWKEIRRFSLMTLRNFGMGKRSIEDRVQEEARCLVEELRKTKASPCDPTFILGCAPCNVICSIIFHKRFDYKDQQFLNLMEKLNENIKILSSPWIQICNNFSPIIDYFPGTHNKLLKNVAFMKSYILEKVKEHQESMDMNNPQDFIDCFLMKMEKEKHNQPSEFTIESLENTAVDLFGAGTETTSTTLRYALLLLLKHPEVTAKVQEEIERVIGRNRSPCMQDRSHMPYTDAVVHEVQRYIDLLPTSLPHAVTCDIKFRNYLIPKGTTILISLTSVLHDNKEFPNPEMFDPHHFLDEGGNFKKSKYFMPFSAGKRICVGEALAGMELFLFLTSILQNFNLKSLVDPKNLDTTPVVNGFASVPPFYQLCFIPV

[18] = molecular target: Aspartyl aminopeptidase (Plasmodium falciparum 3D7, UniProt Q8I2J3)
[19] = molecular target: Procathepsin L (Homo sapiens, UniProt P07711)
Procathepsin L, sequence (P07711 whole entry): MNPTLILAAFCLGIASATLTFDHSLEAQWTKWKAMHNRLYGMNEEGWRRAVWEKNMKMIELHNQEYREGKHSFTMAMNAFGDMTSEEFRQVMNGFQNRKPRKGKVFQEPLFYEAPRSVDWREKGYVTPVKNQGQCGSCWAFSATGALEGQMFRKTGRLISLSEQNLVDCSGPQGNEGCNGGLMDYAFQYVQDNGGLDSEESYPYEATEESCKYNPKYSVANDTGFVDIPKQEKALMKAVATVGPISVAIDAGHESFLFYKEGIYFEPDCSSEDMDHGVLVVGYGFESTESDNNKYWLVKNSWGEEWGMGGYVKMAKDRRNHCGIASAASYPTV

[20] = molecular target: Peroxisome proliferator-activated receptor gamma/Nuclear receptor coactivator 1 (Homo sapiens, UniProt P37231); type: functional;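 further: agonist potency as compounds enhance coactivator SRC-1 recruitment to PPARgamma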
Peroxisome proliferator-activated receptor gamma/Nuclear receptor coactivator 1, sequence (P37231 whole entry): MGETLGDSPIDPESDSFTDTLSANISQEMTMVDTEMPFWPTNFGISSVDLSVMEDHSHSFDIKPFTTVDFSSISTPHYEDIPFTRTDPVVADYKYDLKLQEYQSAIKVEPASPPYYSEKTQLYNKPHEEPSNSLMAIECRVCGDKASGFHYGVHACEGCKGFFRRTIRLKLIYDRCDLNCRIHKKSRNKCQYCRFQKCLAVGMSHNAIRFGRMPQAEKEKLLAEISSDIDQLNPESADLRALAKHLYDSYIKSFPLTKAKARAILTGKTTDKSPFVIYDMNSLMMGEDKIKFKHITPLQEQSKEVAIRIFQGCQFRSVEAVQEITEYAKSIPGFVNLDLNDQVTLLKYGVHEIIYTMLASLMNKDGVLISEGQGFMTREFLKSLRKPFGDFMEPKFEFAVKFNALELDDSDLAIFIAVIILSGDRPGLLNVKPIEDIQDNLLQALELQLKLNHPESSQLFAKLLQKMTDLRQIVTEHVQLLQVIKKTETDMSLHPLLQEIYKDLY
Peroxisome proliferator-activated receptor gamma/Nuclear receptor coactivator 1, sequence (Q15788 whole entry, further chain): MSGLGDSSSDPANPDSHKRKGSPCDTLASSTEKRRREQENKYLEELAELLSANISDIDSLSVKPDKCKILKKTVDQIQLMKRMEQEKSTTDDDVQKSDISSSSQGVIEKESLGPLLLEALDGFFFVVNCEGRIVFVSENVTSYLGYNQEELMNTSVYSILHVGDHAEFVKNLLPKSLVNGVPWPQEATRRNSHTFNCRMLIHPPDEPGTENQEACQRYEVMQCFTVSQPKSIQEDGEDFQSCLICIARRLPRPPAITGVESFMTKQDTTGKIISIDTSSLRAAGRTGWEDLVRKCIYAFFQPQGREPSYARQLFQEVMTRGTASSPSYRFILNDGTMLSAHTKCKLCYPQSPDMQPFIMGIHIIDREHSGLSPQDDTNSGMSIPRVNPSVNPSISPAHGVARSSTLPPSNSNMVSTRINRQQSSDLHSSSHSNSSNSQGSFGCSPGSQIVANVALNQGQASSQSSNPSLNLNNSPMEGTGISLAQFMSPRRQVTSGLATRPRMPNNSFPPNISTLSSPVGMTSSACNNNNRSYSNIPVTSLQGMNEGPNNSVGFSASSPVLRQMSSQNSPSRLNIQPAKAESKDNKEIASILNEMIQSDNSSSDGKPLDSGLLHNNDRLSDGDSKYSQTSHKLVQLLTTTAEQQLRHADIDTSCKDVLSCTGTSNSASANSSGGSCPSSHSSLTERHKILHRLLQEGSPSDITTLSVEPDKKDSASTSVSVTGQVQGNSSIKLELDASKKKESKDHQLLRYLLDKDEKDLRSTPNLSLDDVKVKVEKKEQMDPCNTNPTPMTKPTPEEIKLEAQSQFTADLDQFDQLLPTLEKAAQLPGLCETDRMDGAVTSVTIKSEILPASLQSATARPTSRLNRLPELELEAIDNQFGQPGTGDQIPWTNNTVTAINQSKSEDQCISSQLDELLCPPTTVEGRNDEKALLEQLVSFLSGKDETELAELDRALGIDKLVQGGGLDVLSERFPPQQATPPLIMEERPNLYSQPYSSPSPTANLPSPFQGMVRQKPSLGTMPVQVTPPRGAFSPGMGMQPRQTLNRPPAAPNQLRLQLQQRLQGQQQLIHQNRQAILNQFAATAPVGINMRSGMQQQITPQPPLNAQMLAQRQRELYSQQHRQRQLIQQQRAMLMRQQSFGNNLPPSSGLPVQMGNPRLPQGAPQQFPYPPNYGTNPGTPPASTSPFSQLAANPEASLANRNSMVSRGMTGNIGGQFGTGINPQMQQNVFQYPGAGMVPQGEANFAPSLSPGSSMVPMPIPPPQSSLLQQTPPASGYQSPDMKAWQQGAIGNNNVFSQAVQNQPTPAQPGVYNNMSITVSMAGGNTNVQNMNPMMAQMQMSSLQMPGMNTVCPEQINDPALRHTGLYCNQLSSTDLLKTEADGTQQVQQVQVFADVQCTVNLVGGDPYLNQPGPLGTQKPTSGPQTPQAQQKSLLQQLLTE

[21] = molecular target: Peroxisome proliferator-activated receptor gamma/Nuclear receptor coactivator 3 (Homo sapiens, UniProt P37231); type: functional;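 further: agonist potency for raising coactivator recruitment to the receptor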
Peroxisome proliferator-activated receptor gamma/Nuclear receptor coactivator 3, sequence (P37231 whole entry): as the sequence (P37231 whole entry) above
Peroxisome proliferator-activated receptor gamma/Nuclear receptor coactivator 3, sequence (Q9Y6Q9 whole entry, further chain): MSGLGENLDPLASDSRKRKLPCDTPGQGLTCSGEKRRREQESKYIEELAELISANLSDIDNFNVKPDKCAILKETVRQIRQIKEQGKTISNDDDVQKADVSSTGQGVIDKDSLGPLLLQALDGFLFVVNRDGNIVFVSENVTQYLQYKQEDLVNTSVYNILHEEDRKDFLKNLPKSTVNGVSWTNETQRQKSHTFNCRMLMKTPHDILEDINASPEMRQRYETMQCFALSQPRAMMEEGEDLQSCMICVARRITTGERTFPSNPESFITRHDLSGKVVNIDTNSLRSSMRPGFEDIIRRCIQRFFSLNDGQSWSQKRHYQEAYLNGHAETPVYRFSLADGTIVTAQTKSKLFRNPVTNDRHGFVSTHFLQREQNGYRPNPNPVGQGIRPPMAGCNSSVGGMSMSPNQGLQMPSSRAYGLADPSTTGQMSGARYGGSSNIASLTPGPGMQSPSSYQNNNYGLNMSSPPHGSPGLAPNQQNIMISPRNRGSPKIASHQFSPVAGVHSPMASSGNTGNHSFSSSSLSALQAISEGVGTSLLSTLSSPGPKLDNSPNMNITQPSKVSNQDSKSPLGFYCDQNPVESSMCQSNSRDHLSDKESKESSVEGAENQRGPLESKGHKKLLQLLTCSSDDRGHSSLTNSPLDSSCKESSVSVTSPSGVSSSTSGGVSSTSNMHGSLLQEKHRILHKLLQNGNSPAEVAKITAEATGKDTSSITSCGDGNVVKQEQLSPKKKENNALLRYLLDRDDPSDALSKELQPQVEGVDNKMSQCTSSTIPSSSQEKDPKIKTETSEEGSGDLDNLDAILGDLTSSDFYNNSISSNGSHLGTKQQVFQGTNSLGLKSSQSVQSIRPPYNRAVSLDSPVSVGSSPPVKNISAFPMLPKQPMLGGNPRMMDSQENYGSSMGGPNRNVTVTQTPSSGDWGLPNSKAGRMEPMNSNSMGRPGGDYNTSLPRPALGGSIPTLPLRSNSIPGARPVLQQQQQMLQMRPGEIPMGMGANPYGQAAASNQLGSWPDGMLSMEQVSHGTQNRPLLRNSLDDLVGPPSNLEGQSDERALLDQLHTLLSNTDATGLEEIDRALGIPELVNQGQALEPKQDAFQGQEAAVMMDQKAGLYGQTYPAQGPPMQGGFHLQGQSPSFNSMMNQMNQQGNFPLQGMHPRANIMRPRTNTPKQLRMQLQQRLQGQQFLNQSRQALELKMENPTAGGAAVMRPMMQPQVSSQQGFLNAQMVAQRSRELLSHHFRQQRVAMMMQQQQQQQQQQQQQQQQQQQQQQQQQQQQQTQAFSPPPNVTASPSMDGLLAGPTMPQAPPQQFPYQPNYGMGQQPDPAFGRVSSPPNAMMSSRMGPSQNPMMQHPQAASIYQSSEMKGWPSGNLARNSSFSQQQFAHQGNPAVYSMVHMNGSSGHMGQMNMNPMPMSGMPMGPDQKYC

[22] = molecular target: Peroxisome proliferator-activated receptor gamma/Nuclear receptor coactivator 2 (Homo sapiens, UniProt P37231); type: functional;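 further: agonist potency for raising coactivator recruitment to the receptor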
[23] = molecular target: T5, Neuropeptide Y receptor type 1 (Homo sapiens, UniProt P25929); type: functional;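 further: HEK293 cells with a CNG channel challenged with NPY then isoproterenol; potency as antagonist that reverses NPY suppression of cAMP signal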
T5 sequence (P25929 whole entry): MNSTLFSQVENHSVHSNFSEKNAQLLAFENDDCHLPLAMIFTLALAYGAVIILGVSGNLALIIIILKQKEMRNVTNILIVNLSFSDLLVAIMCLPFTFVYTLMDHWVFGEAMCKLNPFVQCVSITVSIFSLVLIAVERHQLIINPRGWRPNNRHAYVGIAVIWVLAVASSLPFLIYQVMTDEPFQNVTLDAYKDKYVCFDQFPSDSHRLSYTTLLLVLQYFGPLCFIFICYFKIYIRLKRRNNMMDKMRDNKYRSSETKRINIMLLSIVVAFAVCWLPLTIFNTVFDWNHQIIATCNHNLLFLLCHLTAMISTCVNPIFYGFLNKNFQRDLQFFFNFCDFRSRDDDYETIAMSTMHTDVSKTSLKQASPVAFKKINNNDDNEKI

[24] = molecular target: T6, Neuropeptide Y receptor type 2 (Homo sapiens, UniProt P49146); type: functional, cell-based;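 further: HEK293 cells expressing the receptor and a CNG channel; stimulus was NPY near EC95 followed by isoproterenol to raise cAMP; antagonist potency measured as restoring cAMP signal that NPY suppresses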
T6 sequence (P49146 whole entry): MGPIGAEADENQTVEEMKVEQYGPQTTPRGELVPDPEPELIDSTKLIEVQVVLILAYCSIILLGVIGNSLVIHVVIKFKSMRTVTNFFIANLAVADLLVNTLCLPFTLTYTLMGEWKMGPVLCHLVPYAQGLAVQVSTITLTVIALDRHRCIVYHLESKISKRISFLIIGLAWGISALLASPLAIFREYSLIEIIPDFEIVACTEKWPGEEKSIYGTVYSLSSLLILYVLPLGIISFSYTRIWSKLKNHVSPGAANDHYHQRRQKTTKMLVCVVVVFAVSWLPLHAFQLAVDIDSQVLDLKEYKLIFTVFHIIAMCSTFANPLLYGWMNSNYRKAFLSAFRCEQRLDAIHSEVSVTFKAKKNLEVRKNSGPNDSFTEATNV

[25] = molecular target: T7, Calpain-2 catalytic subunit (Sus scrofa, UniProt P43367); assay: pig calpain II inhibitor potency, dose response, biochemical, fluorogenic peptide substrate (AID 1420); type: functional
T7 sequence (P43367 whole entry): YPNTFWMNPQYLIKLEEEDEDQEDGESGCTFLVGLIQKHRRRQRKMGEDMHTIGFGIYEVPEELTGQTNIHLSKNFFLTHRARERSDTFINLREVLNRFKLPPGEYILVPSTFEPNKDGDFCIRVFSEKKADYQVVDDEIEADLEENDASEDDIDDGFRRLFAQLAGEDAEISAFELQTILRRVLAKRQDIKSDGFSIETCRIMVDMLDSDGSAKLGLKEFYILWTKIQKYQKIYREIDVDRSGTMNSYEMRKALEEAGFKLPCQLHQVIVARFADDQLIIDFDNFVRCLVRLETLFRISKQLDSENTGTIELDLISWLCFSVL

[26] = molecular target: T8, Microphthalmia-associated transcription factor (Homo sapiens, UniProt O75030); assay: TRPM1 promoter luciferase signal decrease, dose response, MITF inhibitor project, cell-based, SK-MEL-5, cherry-picked, set 3 (AID 493073); type: functional
T8 sequence (O75030 whole entry): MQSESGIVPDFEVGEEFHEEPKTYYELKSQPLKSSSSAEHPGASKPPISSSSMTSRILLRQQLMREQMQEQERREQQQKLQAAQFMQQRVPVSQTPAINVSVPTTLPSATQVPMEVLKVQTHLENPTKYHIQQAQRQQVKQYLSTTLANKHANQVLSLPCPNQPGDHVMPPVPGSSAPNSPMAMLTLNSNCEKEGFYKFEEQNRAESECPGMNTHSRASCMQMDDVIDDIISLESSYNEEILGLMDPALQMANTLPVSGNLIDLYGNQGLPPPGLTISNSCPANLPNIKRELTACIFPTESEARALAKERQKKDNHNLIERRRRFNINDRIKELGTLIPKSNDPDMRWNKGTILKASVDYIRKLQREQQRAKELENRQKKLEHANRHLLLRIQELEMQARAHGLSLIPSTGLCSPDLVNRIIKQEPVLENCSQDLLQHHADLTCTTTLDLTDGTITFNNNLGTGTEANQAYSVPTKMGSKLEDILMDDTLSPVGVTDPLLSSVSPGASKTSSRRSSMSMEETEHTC

[27] = test system: HT-1080; assay: cytotoxicity in HT1080 fibrosarcoma cells, cell-based, fluorescence readout (AID 620); type: functional; conditions: Homo sapiens
[28] = molecular target: Luciferin 4-monooxygenase (Photinus pyralis, UniProt P08659); assay: Counter Screen for Luciferase-based Assay Positives. [Related pubchem assays: 620, 618, 411 ]

CCn1c2ccccc2c2cc(NC(=O)c3cccc(OC)c3OC)ccc21
CC50 [1]: > 40 µM (active)
IC50 [2]: > 49.8 µM (inactive)
IC50 [3]: > 50 µM (inactive)
IC50 [4]: > 66.2 µM (inactive)
IC50 [5]: > 88.8 µM (inactive)
IC50 [6]: 3.08 µM (active)
IC50 [7]: 1.7 µM (active)

CC(C)CCSc1nc(N2CCOCC2)c2c(c1C#N)CC(C)(C)OC2
CC50 [1]: > 40 µM (active)
EC50 [8]: > 60 µM (not active)
EC50 [9]: 16.4 µM (active)
EC50 [10]: > 120 µM (not active)
EC50 [11]: 31.3 µM (active)
EC50 [12]: 1.3 µM (active)

COc1ccc2nc(C)cc(SCC(=O)NNC(=O)COc3ccccc3)c2c1
EC50 [13]: 79.5 µM (not active)
AC50 [14]: 10 µM (inconclusive)
AC50 [15]: 3.55 µM (inconclusive)
AC50 [16]: 10 µM (inconclusive)
AC50 [17]: 10 µM (inconclusive)

COc1cccc(C(=O)NC(=S)Nn2cnnc2)c1OC
IC50 [18]: 2.08 µM (active)
IC50 [19]: > 59.6 µM (not active)

COc1ccc2nc(C)cc(SCC(=O)Nc3c(C)cccc3C)c2c1
EC50 [20]: > 79.4 µM (not active)
EC50 [13]: > 100 µM (not active)
EC50 [21]: > 79.4 µM (not active)
EC50 [22]: > 79.4 µM (not active)

O=P(CCCCCCCCCP(=O)(c1ccccc1)c1ccccc1)(c1ccccc1)c1ccccc1
IC50 [23]: 10.4 µM (not active)
EC50 [8]: > 60 µM (not active)
EC50 [12]: 1.29 µM (active)
IC50 [24]: 1.65 µM (active)
IC50 [25]: 12 µM (not active)

O=C1c2ccccc2S(=O)(=O)N1Cc1nc2ccccc2s1
AC50 [26]: 2.7 µM (active)
EC50 [9]: 7.48 µM (active)
EC50 [10]: 7.02 µM (active)
EC50 [27]: > 50 µM (not active)
EC50 [11]: 4.21 µM (active)
EC50 [28]: 7.63 µM (active)
